Data: PMC4917448 (Journal of biomolecular screening, 2016)
“Also recorded” adds a separate entry of the source.

Legend:
HCT116 cells = test: CellTiter-Glo cell viability assay in HCT116; type: cell-based, human; conditions: for IC50: Homo sapiens, HCT-116, 1 h, read-out: Viability: IC50, HCT116; for Viability: IC50, HCT116: cherry-pick confirmation, 1 hour
[1] = CellTiter-Glo cell viability assay in HCT116; type: cell-based, human; conditions: human, HCT116 cells
HDAC I/II [2] = test: HDAC-Glo I/II assay in human neural stem cells; type: cell-based; conditions: for HDAC-Glo: Efficacy, hNSC: maximal response; for inhibition of HDAC-Glo I/II luminescence signals: hNSCs, Figure 2
human neural stem cells = test: CellTiter-Glo cell viability assay in hNSC; type: cell-based; conditions: for IC50: Homo sapiens, Neural stem cell, 1 h, read-out: Viability: IC50, hNSC; for Viability: IC50, hNSC: cherry-pick confirmation, 1 hour
[3] = CellTiter-Glo cell viability assay in hNSC; type: cell-based, human; conditions: human, human neural stem cells (hNSC)
HDAC I/II [4] = test: HDAC-Glo I/II assay in HCT116 cells; type: cell-based, human; conditions: for HDAC-Glo: Efficacy, HCT116 / Efficacy, HDAC-Glo I/II HCT116 assay: maximal response
HDAC3 = HDAC3 (Homo sapiens, UniProt O15379); test: Fluorogenic isoform-specific HDAC assay, HDAC3; type: biochemical
Chain of HDAC3 (O15379 whole entry, canonical isoform): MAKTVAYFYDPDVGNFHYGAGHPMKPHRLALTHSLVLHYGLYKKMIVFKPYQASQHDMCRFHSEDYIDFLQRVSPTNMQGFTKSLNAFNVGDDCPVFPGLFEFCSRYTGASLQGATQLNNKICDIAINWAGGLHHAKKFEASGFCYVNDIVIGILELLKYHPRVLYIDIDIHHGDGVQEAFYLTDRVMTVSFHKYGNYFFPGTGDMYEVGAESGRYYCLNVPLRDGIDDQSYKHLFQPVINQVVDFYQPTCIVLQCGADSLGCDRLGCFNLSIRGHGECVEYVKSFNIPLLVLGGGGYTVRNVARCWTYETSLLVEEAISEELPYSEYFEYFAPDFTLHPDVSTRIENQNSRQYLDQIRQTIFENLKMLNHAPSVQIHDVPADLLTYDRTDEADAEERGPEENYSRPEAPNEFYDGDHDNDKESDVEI
Chain of HDAC3 (Q9Y618 395-489 partner limits assumed): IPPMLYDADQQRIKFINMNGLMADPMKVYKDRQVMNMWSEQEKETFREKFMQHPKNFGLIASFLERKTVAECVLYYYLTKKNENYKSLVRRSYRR

HDAC4 = HDAC4 (Homo sapiens, UniProt P56524); test: Fluorogenic isoform-specific HDAC assay, HDAC4; type: biochemical
Chain of HDAC4 (P56524 whole entry, canonical isoform): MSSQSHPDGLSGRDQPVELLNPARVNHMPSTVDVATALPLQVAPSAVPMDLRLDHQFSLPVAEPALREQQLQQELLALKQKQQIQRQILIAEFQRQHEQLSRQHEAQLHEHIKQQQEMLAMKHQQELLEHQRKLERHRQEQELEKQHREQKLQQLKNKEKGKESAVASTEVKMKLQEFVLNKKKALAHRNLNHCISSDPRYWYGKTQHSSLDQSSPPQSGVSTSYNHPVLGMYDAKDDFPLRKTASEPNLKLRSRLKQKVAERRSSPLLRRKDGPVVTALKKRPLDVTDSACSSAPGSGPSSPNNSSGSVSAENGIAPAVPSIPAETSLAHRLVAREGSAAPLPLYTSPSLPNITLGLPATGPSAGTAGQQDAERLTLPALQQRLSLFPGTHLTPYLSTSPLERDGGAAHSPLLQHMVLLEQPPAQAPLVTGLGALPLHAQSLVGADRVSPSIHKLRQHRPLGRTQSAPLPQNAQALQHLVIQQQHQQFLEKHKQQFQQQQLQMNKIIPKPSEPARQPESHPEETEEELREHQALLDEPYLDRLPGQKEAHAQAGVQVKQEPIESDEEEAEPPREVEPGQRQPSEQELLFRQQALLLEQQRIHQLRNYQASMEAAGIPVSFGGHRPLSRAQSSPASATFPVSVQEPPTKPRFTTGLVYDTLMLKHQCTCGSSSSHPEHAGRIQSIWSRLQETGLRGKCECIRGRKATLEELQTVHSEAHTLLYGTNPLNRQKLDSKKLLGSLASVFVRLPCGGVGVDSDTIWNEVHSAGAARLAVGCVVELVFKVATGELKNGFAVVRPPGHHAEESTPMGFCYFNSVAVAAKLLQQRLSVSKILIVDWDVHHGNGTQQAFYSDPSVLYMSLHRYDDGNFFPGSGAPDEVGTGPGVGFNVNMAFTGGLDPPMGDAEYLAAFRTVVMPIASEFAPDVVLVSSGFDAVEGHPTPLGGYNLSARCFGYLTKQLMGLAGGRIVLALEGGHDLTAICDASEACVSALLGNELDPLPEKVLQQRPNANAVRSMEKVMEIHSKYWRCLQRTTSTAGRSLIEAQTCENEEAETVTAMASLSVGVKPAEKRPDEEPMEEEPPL

HDAC8 = target: T1, HDAC8 (Homo sapiens, UniProt Q9BY41); test: Fluorogenic isoform-specific HDAC assay, HDAC8; type: biochemical
T1 sequence (Q9BY41 1-377): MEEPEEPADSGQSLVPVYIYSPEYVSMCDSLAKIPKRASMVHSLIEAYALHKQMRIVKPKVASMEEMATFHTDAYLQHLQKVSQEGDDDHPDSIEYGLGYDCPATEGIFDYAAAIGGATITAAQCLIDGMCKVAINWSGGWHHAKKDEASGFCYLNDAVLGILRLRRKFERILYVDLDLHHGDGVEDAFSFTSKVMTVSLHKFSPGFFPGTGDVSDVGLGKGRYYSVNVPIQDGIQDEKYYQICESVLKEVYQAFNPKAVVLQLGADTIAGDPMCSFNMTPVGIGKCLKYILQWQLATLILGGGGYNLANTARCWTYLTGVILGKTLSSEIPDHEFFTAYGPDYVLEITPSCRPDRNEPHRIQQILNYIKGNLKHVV

HDAC2 = HDAC2 (Homo sapiens, UniProt Q92769); test: Fluorogenic isoform-specific HDAC assay, HDAC2; type: biochemical
Chain of HDAC2 (Q92769 whole entry, canonical isoform): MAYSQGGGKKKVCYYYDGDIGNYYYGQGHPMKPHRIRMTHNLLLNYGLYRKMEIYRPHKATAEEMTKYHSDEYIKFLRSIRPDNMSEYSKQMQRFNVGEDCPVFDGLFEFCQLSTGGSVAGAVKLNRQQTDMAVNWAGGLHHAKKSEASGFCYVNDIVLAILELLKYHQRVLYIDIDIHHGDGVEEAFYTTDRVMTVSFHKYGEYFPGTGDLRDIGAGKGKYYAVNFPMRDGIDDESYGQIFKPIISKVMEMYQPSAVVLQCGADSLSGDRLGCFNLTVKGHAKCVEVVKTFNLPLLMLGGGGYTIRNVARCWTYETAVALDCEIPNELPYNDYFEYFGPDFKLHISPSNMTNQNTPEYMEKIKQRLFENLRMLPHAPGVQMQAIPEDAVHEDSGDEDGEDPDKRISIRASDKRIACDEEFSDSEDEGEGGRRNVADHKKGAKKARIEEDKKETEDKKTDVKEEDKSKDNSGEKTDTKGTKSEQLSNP

HDAC5 = HDAC5 (Homo sapiens, UniProt Q9UQL6); test: Fluorogenic isoform-specific HDAC assay, HDAC5; type: biochemical
Chain of HDAC5 (Q9UQL6 whole entry, canonical isoform): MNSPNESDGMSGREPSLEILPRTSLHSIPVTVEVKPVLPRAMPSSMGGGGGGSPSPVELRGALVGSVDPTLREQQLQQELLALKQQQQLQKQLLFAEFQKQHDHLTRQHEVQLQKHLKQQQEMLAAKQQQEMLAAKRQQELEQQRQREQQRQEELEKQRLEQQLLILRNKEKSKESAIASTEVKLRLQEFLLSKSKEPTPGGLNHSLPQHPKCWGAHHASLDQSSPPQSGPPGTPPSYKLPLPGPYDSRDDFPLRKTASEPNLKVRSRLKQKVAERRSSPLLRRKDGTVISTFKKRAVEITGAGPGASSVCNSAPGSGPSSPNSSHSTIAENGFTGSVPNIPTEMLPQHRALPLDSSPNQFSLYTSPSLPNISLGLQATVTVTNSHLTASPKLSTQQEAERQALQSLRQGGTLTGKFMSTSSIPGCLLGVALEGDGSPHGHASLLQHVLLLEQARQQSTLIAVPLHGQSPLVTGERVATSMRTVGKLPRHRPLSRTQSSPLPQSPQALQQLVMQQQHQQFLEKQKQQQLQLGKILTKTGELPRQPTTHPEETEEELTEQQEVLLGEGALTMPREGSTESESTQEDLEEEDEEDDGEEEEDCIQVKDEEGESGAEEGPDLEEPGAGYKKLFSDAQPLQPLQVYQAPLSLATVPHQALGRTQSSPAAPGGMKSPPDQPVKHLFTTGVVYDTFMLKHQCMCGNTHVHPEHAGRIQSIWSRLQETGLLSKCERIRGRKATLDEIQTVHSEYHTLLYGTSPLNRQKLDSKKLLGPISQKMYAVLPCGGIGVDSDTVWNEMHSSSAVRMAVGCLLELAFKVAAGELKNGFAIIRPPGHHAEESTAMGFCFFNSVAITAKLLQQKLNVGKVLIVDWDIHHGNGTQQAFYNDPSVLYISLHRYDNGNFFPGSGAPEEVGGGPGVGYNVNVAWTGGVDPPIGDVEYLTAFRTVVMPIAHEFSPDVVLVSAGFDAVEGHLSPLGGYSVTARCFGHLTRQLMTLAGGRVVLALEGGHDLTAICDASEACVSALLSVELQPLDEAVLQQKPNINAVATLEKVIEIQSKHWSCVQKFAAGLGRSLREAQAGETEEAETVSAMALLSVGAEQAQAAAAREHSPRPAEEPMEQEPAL

HDAC9 = HDAC9 (Homo sapiens, UniProt Q9UKV0); test: Fluorogenic isoform-specific HDAC assay, HDAC9; type: biochemical
Chain of HDAC9 (Q9UKV0 whole entry, canonical isoform): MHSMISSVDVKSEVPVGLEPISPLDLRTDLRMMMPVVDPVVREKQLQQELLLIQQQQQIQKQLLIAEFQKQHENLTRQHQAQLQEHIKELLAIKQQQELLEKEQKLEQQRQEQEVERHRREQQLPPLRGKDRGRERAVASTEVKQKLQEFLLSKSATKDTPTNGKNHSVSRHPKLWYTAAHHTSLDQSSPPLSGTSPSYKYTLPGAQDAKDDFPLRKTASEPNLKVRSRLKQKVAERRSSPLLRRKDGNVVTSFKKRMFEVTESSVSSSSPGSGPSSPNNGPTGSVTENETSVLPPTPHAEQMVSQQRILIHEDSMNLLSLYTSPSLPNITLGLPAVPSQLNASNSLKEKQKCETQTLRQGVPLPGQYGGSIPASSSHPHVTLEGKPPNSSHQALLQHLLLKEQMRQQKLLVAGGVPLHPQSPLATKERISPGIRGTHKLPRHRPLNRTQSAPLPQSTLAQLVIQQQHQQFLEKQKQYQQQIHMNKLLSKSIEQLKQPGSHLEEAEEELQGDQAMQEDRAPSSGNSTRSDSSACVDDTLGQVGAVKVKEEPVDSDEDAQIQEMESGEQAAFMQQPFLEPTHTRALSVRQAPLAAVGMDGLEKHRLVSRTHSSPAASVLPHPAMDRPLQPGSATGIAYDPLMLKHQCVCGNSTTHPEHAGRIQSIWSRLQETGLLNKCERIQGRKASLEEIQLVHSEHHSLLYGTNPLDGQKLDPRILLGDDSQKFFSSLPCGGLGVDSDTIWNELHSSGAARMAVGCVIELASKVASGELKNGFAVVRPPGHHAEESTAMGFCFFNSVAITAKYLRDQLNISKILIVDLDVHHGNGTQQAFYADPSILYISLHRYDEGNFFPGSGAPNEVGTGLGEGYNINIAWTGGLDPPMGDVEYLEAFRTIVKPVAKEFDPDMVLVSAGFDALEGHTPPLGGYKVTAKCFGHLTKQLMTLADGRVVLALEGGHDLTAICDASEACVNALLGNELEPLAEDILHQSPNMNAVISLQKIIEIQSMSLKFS

HDAC6 = target: T2, HDAC6 (Homo sapiens, UniProt Q9UBN7); test: Fluorogenic isoform-specific HDAC assay, HDAC6; type: biochemical
T2 sequence (Q9UBN7 1-1215): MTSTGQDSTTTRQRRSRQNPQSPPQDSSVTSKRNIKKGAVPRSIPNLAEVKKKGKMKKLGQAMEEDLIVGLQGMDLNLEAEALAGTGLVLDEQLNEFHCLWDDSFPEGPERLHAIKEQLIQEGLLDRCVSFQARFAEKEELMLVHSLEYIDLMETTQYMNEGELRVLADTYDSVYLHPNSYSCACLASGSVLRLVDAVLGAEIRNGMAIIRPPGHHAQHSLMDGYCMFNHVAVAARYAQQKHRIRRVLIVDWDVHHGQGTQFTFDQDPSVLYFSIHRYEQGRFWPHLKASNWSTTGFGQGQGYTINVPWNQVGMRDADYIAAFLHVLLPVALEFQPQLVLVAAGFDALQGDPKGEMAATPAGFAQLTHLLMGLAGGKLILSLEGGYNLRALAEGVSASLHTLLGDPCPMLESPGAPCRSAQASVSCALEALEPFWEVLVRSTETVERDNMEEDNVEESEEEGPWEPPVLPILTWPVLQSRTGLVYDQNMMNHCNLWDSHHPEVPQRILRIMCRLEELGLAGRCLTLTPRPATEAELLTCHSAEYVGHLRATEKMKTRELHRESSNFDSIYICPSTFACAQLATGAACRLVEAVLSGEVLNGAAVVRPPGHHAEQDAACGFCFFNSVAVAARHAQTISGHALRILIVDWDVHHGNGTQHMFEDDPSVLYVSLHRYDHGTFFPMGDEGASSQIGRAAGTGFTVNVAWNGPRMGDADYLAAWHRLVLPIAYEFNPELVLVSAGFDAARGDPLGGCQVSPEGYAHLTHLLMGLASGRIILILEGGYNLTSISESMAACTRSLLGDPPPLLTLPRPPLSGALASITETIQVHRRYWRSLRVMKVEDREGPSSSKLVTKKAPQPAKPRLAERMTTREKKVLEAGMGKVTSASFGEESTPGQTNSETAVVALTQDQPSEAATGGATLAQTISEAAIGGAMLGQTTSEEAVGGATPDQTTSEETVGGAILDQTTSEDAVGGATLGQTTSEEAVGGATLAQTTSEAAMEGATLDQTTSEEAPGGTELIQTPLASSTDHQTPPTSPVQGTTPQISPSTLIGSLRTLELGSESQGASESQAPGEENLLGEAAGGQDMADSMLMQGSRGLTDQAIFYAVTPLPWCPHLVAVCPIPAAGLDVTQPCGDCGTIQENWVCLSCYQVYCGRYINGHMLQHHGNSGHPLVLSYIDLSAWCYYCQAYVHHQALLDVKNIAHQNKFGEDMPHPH

[5] = test system: class I and II HDAC enzymes; test: Panel of fluorogenic assays against ten class I and II HDAC isoforms; type: biochemical, human
HDAC1 = HDAC1 (Homo sapiens, UniProt Q13547); test: Fluorogenic isoform-specific HDAC assay, HDAC1; type: biochemical
Chain of HDAC1 (Q13547 whole entry, canonical isoform): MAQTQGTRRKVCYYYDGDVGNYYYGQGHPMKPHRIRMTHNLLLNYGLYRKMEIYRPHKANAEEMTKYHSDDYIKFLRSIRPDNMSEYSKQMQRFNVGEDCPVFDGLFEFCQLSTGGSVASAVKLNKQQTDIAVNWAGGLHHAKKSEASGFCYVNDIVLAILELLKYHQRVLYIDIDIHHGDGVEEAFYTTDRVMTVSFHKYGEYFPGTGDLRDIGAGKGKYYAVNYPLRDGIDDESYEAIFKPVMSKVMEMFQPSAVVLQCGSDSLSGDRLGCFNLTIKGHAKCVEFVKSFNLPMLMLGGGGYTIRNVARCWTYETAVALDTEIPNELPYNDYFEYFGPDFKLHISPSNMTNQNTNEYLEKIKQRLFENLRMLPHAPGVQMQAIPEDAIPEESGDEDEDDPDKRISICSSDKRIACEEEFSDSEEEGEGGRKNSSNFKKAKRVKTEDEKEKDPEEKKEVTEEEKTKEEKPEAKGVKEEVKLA

HDAC7 = target: T3, HDAC7 (Homo sapiens, UniProt Q8WUI4); test: Fluorogenic isoform-specific HDAC assay, HDAC7; type: biochemical; conditions: Figure 4D, Suppl. Table S4
T3 sequence (Q8WUI4 1-952): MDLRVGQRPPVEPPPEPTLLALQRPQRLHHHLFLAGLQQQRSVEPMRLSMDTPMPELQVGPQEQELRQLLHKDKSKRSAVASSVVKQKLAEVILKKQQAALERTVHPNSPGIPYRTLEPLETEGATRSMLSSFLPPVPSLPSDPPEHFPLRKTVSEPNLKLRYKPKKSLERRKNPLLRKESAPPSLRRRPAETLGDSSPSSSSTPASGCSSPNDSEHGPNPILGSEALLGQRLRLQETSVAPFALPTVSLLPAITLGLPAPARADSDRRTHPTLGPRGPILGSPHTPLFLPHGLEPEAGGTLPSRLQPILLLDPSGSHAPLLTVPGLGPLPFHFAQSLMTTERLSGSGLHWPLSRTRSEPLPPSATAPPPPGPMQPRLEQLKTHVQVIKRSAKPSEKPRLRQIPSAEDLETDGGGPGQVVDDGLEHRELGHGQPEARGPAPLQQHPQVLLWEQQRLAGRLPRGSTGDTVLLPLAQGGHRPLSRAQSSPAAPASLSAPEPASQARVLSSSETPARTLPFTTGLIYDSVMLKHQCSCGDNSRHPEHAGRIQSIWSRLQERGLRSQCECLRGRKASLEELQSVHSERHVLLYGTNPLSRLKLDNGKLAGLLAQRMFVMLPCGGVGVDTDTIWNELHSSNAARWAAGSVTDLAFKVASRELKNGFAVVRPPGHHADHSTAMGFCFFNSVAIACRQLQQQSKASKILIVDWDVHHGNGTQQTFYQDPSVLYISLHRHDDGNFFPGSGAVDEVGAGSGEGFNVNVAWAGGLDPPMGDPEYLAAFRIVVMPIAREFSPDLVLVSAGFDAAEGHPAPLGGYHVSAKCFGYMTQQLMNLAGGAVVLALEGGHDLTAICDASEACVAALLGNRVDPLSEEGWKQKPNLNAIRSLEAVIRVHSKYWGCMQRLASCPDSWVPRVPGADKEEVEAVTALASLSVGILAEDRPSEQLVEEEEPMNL

HDAC I/II [6] = test: HDAC-Glo I/II assay in HEK293 cells; type: cell-based, human; conditions: read-out: average IC50, HDAC-Glo I/II activity; HEK293, assay optimization, Figure 1A
HDAC I/II [7] = test: HDAC-Glo I/II assay in HepG2 cells; type: cell-based, human; conditions: read-out: average IC50, HDAC-Glo I/II activity; HepG2, assay optimization, Figure 1A
HDAC I/II [8] = test: HDAC-Glo I/II assay in SU-DHL-6 cells; type: cell-based, human; conditions: read-out: average IC50, HDAC-Glo I/II activity; SU-DHL-6, assay optimization, Figure 1A
[9] = read-out: HDAC-Glo: IC50, hNSC, cherry-pick confirmation, 11 concentrations, 1 hour
[10] = read-out: HDAC-Glo: IC50, HCT116, cherry-pick confirmation, 11 concentrations, 1 hour
[11] = read-out: IC50, HDAC-Glo I/II HCT116 assay, powder confirmation

IC50 (HCT116 cells) [nM]	IC50 (HDAC I/II [2]; [9]) [nM]	IC50 (HDAC I/II [4]; [10]) [nM]	IC50 (HDAC I/II [4]; [11]) [nM]	Viability: IC50, HCT116 (HCT116 cells)	IC50 (HDAC8) [nM]	IC50 (HDAC2) [nM]	IC50 (HDAC5) [nM]	IC50 (HDAC9) [nM]	IC50 (HDAC6) [nM]	IC50 (HDAC3) [nM]	Compound	viability at 1 h [1] [%]	HDAC-Glo: Efficacy, hNSC (HDAC I/II [2]; cherry-pick confirmation) [%]	IC50 (human neural stem cells) [nM]	viability at 1 h [3] [%]	HDAC-Glo: Efficacy, HCT116 (HDAC I/II [4]; cherry-pick confirmation) [%]	Efficacy, HDAC-Glo I/II HCT116 assay (HDAC I/II [4]; powder confirmation) [%]	inhibition of HDAC-Glo I/II luminescence signals (HDAC I/II [2]; cherry-pick confirmation)	Viability: IC50, hNSC (human neural stem cells)	further results
23600 ± 12000	1050 ± 120	1600 ± 100	1350 ± 140	–	–	–	–	–	–	–	CC(=O)Oc1ccccc1C(=O)Nc1ncc([N+](=O)[O-])s1 [Nitazoxanide]	62	104 ± 1	12400 ± 4650	40	116 ± 1	99 ± 0	–	–	–
–	100 ± 20	70 ± 10	110 ± 10	Inactive	–	–	–	–	–	–	CC(/C=C/C(=O)NO)=C\[C@@H](C)C(=O)c1ccc(N(C)C)cc1 [Trichostatin A]	–	114 ± 6	–	–	119 ± 5	99 ± 0	–	Inactive	IC50 (HDAC I/II [2]; read-out: average IC50, HDAC-Glo I/II activity, hNSC, assay optimization, Figure 1A): 440 nM; IC50 (HDAC I/II [6]): 90 nM; IC50 (HDAC I/II [7]): 50 nM; HDAC I/II inhibitory activity (in words) (HDAC I/II [4]; HCT116 and HEK293 cells, validation with epigenetics libraries): greatly inhibited HDAC-Glo I/II activity; IC50 (HDAC I/II [4]; read-out: IC50, HDAC-Glo I/II, HCT116 cells, time course, one hour treatment): 50 ± 30 nM; IC50 (HDAC I/II [4]; read-out: average IC50, HDAC-Glo I/II activity, HCT116, assay optimization, Figure 1A): 250 nM; inhibition against all class I and II HDAC enzymes ([5]; 20 μM): over 80%; inhibition of HDAC isoforms (in words) ([5]; 20 μM, Figure 3): inhibited activities of all isoforms; IC50 (HDAC I/II [8]): 100 nM

Further lines, the compound ahead of its results:

Compound	IC50 (HCT116 cells) [nM]	IC50 (HDAC I/II [2]; [9]) [nM]	IC50 (HDAC I/II [4]; [10]) [nM]	IC50 (HDAC I/II [4]; [11]) [nM]	Viability: IC50, HCT116 (HCT116 cells)	IC50 (HDAC8) [nM]	IC50 (HDAC2) [nM]	IC50 (HDAC5) [nM]	IC50 (HDAC9) [nM]	IC50 (HDAC6) [nM]	IC50 (HDAC3) [nM]	viability at 1 h [1] [%]	HDAC-Glo: Efficacy, hNSC (HDAC I/II [2]; cherry-pick confirmation) [%]	IC50 (human neural stem cells) [nM]	viability at 1 h [3] [%]	HDAC-Glo: Efficacy, HCT116 (HDAC I/II [4]; cherry-pick confirmation) [%]	Efficacy, HDAC-Glo I/II HCT116 assay (HDAC I/II [4]; powder confirmation) [%]	inhibition of HDAC-Glo I/II luminescence signals (HDAC I/II [2]; cherry-pick confirmation)	Viability: IC50, hNSC (human neural stem cells)	further results
O=C(O)c1cccc(-c2noc(-c3ccccc3F)n2)c1 [Ataluren (PTC-124), Ataluren]	14400 ± 2450	800 ± 50	830	–	–	–	–	–	–	–	–	103	109 ± 3	14300 ± 930	86 ± 60.2	111 ± 4	–	–	–	–
O=S(=O)(O)c1ccc2[nH]c(-c3ccccc3)nc2c1 [Ensulizole]	13400 ± 2800	1940 ± 970	6130 ± 3060	1660 ± 730	–	–	–	–	–	–	–	70	111 ± 1	16000 ± 1040	58	116 ± 5	98 ± 0	–	–	inhibition of HDAC3 (in words) (HDAC3; 20 μM): selectively inhibited; also recorded: selective to HDAC3
N=C(N)c1ccc2cc(OC(=O)c3ccc(N=C(N)N)cc3)ccc2c1 [Nafamostat]	–	360 ± 140	1110 ± 250	120 ± 30	Inactive	1520	4690	1330	1550	4390	4040	–	108 ± 1	–	–	116 ± 3	99 ± 0	completely inhibited	Inactive	IC50 (HDAC4): 1490 nM; isoform selectivity ([5]; red-shifted versions of fluorogenic assays, Figure 4A, 4B): more selective in inhibiting HDAC4, HDAC5, and HDAC8 than other HDAC isoforms; IC50 (HDAC1): 4670 nM
Oc1cc(O)cc(/C=C/c2ccc(O)c(O)c2)c1 [Piceatannol]	–	4180	5900	10300 ± 1060	Inactive	3420	5040	890	9950	8220	23300	–	108 ± 4	19500 ± 2490	25	105 ± 7	60 ± 4	completely inhibited	–	inhibition of HDAC activity, HDAC5 (HDAC5; Figure 4D, Suppl. Table S4): over 30%; inhibition of HDAC activity, HDAC9 (HDAC9; Figure 4D, Suppl. Table S4): over 30%; inhibition of HDAC activity, HDAC7 (HDAC7): over 30%; inhibition of HDAC activity, HDAC1 (HDAC1; Figure 4C, Suppl. Table S4): over 30%
